This is an account of results in ChEMBL document CHEMBL2413039, “Novel N-hydroxyfurylacrylamide-based histone deacetylase (HDAC) inhibitors with branched CAP group (Part 2)” (Bioorg Med Chem, 2013).

Assay [1] deals with HepG2. In words: cells. The class given is functional, cell-based. The conditions noted are these: Homo sapiens, HepG2, 48 h.
Assay [2] concerns A549. Nature of the assay: cells. The class given is functional, cell-based. The following applies: Homo sapiens, A549, 48 h.
The subject of assay [3] is HCT-116. Nature of the assay: cells. The assay is classed as functional, cell-based. The following applies: Homo sapiens, HCT-116, 48 h.
In assay [4] the test system is PC-3. Nature of the assay: cells. The assay is classed as functional, cell-based. The conditions noted are these: Homo sapiens, PC-3, 48 h.
The target in assay [5] is Histone deacetylase. The class given is protein assay, Homo sapiens. The following applies: hela.
For assay [6], the species on record is Homo sapiens. Nature of the assay: Selectivity ratio of IC50 for human recombinant HDAC4 to human recombinant HDAC6.
The species named for assay [7] is Homo sapiens. In words: Selectivity ratio of IC50 for human recombinant HDAC1 to human recombinant HDAC6.
Assay [8] addresses Histone deacetylase 4 (Homo sapiens, UniProt P56524). In words: Inhibition of human recombinant HDAC4 using p53 residues 379-382 (RHKKAc) as substrate.
In assay [9] the target is Histone deacetylase 1 (Homo sapiens, UniProt Q13547). In words: Inhibition of human recombinant HDAC1 using p53 residues 379-382 (RHKKAc) as substrate.
For assay [10], the target named is T1, Protein deacetylase HDAC6 (Homo sapiens, UniProt Q9UBN7).
T1 sequence (Q9UBN7 whole entry): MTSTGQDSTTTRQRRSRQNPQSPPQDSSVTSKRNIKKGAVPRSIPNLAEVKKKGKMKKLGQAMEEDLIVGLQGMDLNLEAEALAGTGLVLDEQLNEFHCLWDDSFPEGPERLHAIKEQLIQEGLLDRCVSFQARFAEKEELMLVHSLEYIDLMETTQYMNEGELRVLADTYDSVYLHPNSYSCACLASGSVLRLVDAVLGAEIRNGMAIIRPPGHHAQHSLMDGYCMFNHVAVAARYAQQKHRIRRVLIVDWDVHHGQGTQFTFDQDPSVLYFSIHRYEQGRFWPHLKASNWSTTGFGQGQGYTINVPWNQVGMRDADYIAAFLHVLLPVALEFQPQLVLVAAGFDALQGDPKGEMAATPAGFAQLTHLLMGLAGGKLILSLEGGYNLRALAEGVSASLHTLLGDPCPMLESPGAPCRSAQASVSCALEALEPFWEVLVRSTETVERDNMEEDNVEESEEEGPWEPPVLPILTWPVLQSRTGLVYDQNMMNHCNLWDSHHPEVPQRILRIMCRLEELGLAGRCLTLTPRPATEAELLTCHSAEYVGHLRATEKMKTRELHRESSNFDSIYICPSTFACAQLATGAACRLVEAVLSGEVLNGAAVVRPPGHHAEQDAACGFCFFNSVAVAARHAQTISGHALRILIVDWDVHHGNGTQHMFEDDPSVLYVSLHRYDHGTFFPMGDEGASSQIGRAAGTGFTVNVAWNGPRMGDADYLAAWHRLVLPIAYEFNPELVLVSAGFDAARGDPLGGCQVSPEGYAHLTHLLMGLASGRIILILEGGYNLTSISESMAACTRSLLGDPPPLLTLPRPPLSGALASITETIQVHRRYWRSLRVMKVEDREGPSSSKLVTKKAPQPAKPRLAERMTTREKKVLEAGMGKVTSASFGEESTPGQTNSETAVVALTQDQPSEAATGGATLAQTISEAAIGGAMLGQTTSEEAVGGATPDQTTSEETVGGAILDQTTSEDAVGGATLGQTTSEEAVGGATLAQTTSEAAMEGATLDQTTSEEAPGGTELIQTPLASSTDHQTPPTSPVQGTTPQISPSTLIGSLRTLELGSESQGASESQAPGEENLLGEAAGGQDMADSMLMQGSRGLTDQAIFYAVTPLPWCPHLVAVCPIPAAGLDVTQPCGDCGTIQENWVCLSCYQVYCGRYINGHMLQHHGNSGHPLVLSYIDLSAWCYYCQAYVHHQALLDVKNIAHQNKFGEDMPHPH

Histone deacetylase 1, sequence (Q13547 whole entry, the tested form may be a part): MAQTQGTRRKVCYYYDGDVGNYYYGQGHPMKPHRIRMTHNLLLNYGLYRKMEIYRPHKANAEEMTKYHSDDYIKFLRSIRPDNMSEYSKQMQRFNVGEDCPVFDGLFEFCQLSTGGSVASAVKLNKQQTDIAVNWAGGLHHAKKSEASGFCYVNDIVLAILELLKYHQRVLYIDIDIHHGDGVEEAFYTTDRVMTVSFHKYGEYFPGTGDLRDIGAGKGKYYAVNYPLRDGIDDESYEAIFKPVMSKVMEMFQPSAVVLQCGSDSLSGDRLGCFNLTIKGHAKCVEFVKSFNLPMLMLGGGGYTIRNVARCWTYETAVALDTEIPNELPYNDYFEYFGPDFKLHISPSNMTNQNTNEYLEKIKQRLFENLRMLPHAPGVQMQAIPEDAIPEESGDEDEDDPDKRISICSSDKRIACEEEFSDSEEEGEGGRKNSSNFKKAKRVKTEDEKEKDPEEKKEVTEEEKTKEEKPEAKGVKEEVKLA
Histone deacetylase 4, sequence (P56524 whole entry, the tested form may be a part): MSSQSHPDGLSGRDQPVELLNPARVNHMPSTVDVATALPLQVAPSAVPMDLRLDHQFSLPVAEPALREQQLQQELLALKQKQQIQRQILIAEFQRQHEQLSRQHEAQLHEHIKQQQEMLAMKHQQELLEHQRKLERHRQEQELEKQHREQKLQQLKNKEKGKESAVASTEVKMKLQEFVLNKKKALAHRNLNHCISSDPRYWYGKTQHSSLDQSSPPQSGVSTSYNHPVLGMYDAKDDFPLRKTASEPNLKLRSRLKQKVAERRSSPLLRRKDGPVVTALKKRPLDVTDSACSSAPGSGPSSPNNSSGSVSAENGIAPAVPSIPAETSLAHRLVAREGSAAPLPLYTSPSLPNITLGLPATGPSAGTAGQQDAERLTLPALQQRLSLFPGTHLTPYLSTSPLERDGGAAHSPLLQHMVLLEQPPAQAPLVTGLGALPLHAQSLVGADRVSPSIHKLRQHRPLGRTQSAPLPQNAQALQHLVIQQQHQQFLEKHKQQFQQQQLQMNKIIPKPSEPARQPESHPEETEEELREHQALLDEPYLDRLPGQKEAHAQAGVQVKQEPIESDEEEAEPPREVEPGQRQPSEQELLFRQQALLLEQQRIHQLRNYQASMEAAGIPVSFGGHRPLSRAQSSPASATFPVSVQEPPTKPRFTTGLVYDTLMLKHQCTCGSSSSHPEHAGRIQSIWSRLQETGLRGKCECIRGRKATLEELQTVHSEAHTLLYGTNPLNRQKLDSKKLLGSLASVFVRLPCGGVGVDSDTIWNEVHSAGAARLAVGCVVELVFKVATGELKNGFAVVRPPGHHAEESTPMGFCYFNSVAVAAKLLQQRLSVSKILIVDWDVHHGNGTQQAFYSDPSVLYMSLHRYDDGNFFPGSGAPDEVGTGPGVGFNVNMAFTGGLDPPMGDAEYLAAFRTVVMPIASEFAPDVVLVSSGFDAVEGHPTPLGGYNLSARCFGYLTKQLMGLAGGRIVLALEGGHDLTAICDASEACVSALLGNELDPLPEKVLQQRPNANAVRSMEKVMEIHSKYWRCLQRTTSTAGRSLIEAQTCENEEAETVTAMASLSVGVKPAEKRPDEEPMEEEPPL

What is called EC50 is the concentration giving half of the maximal effect. A low value points to greater potency. Usually IC50 stands for the concentration needed to halve the response being measured. Consider `Cc1ccc(OCCCN(Cc2ccc(-c3ccccc3)cc2)Cc2ccc(/C=C/C(=O)NO)o2)cc1`, for which the EC50 turned out to be 11.7 µM in [1], 11.5 µM in assay [2], 2.22 µM in assay [3] and 18.1 µM in assay [4]. Also, the IC50 in assay [5] stood at 1.66 µM.
On to `O=C(/C=C/c1ccc(CN(CCCOc2ccccc2)Cc2ccccc2)o1)NO`, for which the values for the Ratio IC50 in assay [6] and in assay [7] were 15.6 and 8.21, respectively. For the same compound, the IC50 was found to be 12.3 µM in assay [8], 6.48 µM in assay [9], 1.48 µM in assay [5] and 0.79 µM in assay [10]. In addition, the EC50 worked out at 15 µM in assay [1], 25.8 µM in assay [2], 7.24 µM in assay [3] and 44.9 µM in assay [4].
Take `CCCN(CCc1ccc2c(c1)OCO2)Cc1ccc(/C=C/C(=O)NO)o1`: the EC50 was 28.7 µM in assay [1], 50.6 µM in [2], 15.9 µM in assay [3] and 7.57 µM in [4]. The IC50 in [5] is 1.59 µM.
On to `CCCCCCN(Cc1ccccc1)Cc1ccc(/C=C/C(=O)NO)o1`, for which the EC50 in assay [1] was determined as 21.8 µM; in assay [2] it was 11 µM; in [3], 8.96 µM; in [4], 23.8 µM. In addition, the IC50 in [5] is 2.65 µM.
Regarding `O=C(/C=C/c1ccc(CN(CCCCOc2ccccc2)CCc2ccc3c(c2)OCO3)o1)NO`, the EC50 in assay [1] was 97.7 µM; in assay [2] it was 46.8 µM; in assay [3], 35.9 µM; in assay [4], 15.5 µM. The compound further gave an IC50 in [5] of 1.57 µM.
Regarding `O=C(/C=C/c1ccc(CN(CCCCOc2ccccc2)Cc2ccccc2)o1)NO`, the EC50 in assay [1] was determined as 14.7 µM; in assay [2] it was 10.6 µM; in assay [3] it was 6.43 µM; in assay [4] it was 35.9 µM. Further, the IC50 in [5] is 2.12 µM.
Consider `O=C(/C=C/c1ccc(CN(CCOc2ccccc2)Cc2ccc(-c3ccccc3)cc2)o1)NO`, for which the EC50 in [1] came out at 18.1 µM; in assay [2], 26.4 µM; in [3] it was 9.53 µM; in assay [4] it was 15.9 µM. In assay [5], this compound yielded an IC50 of 1.21 µM.
Take `Cc1ccc(OCCCCN(Cc2ccc(-c3ccccc3)cc2)Cc2ccc(/C=C/C(=O)NO)o2)cc1`: the EC50 in assay [1] came out at 15.9 µM; in assay [2], 15.6 µM; in assay [3] it was 2.76 µM; in [4], 37.6 µM. Moreover, in assay [5], the IC50 was more than 1.96 µM.
For `CCCCCN(CCc1ccc2c(c1)OCO2)Cc1ccc(/C=C/C(=O)NO)o1`, the EC50 in [1] is 65.3 µM; in assay [2] it was 72.5 µM; in [3] it was 74.8 µM; in [4] it was 37.1 µM. Further, the IC50 in [5] was 3.49 µM.
The matching figures for `CCCCCCCCN(Cc1ccc(-c2ccccc2)cc1)Cc1ccc(/C=C/C(=O)NO)o1`: 36.9 µM, 28.8 µM, 10.4 µM, 36.8 µM and more than 2.17 µM.
For the compound `O=C(/C=C/c1ccc(CN(CCCOc2ccccc2)CCc2ccc3c(c2)OCO3)o1)NO`, the EC50 in [1] worked out at 110 µM; in assay [2], 16.3 µM; in assay [3] it was 37.2 µM; in assay [4], 18.8 µM. Further, in [5], the IC50 was more than 2.22 µM.
With `O=C(/C=C/c1ccc(CN(Cc2ccccc2)Cc2ccc(-c3ccccc3)cc2)o1)NO`, the EC50 was determined as 66.6 µM in assay [1], 69.8 µM in assay [2], 9.01 µM in [3] and 14.3 µM in assay [4]. Moreover, the IC50 in assay [5] is more than 2.55 µM.
As for `CCCCCN(Cc1ccc(-c2ccccc2)cc1)Cc1ccc(/C=C/C(=O)NO)o1`, the EC50 is 19.7 µM in [1], 14.7 µM in [2], 8.23 µM in [3] and 13.4 µM in assay [4]. The same compound gave an IC50 in assay [5] of more than 2.39 µM.
For the compound `O=C(CCCCCCC(=O)Nc1ccc([C@H]2O[C@@H](CSc3nc(-c4ccccc4)c(-c4ccccc4)o3)C[C@@H](c3ccc(CO)cc3)O2)cc1)NO`, the Ratio IC50 in [7] is 7.
Regarding `Cc1ccc(OCCCCN(Cc2ccccc2)Cc2ccc(/C=C/C(=O)NO)o2)cc1`, the Ratio IC50 in assay [6] was found to be 23.1; in assay [7], 8.63. Moreover, the IC50 came out at 12.6 µM in assay [8], 4.73 µM in [9], 1.31 µM in assay [5] and 0.55 µM in assay [10]. Further, the EC50 in assay [1] turned out to be 16.3 µM; in [2], 9.82 µM; in [3] it was 5.62 µM; in assay [4], 15.7 µM.
For the compound `Cc1ccc(OCCN(Cc2ccccc2)Cc2ccc(/C=C/C(=O)NO)o2)cc1`, the figures for the Ratio IC50 in assay [6] and in assay [7] were 21.8 and 10, respectively. Also, the IC50 worked out at 68.1 µM in assay [8], 31.4 µM in [9], 1.87 µM in assay [5] and 3.13 µM in assay [10]. Further, the EC50 in assay [1] is 13 µM; in assay [2], 52.6 µM; in assay [3], 14.8 µM; in assay [4], 51.7 µM.
On to `O=C(/C=C/c1ccc(CN(CCOc2ccccc2)CCc2ccc3c(c2)OCO3)o1)NO`, for which the EC50 in assay [1] came out at 68.3 µM; in [2], 37.4 µM; in assay [3] it was 30.6 µM; in assay [4], 23.7 µM. In [5], this compound gave a half-maximal inhibitory concentration (IC50) of 2.36 µM.
As to `CC(C)CN(CCc1ccc2c(c1)OCO2)Cc1ccc(/C=C/C(=O)NO)o1`, the EC50 worked out at 38 µM in assay [1], 39.3 µM in assay [2], 17.1 µM in assay [3] and 16.1 µM in assay [4]. In assay [5], this compound displayed an IC50 of more than 2.69 µM.
Take `Cc1ccc(OCCCN(Cc2ccccc2)Cc2ccc(/C=C/C(=O)NO)o2)cc1`: the Ratio IC50 worked out at 14.2 in assay [6] and 10.4 in assay [7]. Also, the IC50 is 13.2 µM in [8], 9.66 µM in assay [9], 2.54 µM in assay [5] and 0.93 µM in assay [10]. The EC50 in assay [1] was determined as 5.95 µM; in [2], 7.95 µM; in assay [3] it was 6.02 µM; in assay [4], 42.2 µM.
Turning to `O=C(/C=C/c1ccc(CN(CCO)CCc2ccc3c(c2)OCO3)o1)NO`, the EC50 worked out at 105 µM in [1], 87.9 µM in assay [2], 69.5 µM in assay [3] and 92.5 µM in [4]. Also, in assay [5], the IC50 came to 0.4 µM.
Regarding `CC(C)N(Cc1ccc(-c2ccccc2)cc1)Cc1ccc(/C=C/C(=O)NO)o1`, the EC50 in assay [1] was 15.5 µM; in [2], 15.6 µM; in [3] it was 2.74 µM; in assay [4] it was 24.2 µM. The IC50 in assay [5] was 1.61 µM.
On to `O=C(/C=C/c1ccc(CN(CCc2ccc3c(c2)OCO3)Cc2ccccc2)o1)NO`, for which the EC50 in assay [1] came to 73.2 µM; in assay [2] it was 35.4 µM; in [3], 91.4 µM; in [4], 34.5 µM. The IC50 in assay [5] is 2.28 µM.
Consider `CCCCN(CCc1ccc2c(c1)OCO2)Cc1ccc(/C=C/C(=O)NO)o1`, for which the EC50 turned out to be 54.3 µM in assay [1], 78.2 µM in assay [2], 17 µM in assay [3] and 33.2 µM in assay [4]. For the same compound, the IC50 in [5] was more than 2.69 µM.
The corresponding values for `O=C(/C=C/c1ccc(CN(CCCCOc2ccccc2)Cc2ccc(-c3ccccc3)cc2)o1)NO` are 32.9 µM, 22.4 µM, 2.76 µM, 23.6 µM and more than 2.02 µM.
Consider `O=C(/C=C/c1ccc(CN(CCCOc2ccccc2)Cc2ccc(-c3ccccc3)cc2)o1)NO`, for which the 50% effective concentration (EC50) was 12.7 µM in assay [1], 16.6 µM in assay [2], 2.05 µM in assay [3] and 25.2 µM in assay [4]. In assay [5], this compound had an IC50 of more than 2.07 µM.
